# Results: patent US11963941B2, “Use of a fasting mimicking diet to enhance the efficacy of antiestrogens in cancer” (UNIVERSITA' DEGLI STUDI DI GENOVA, priority 2016, dated 2024)
# Entries after “also recorded” stand apart in the source; their conditions may differ.
# How the values were obtained:
# MCF7 cells [1] = assay: Short-term viability assay (72 h, sulforhodamine B) with chemotherapeutics; type: cell-based; settings: FIG. 7
# Method: In the experiment of FIG. 7, 5×10^3 MCF7 cells/well were plated in 96-well plates in regular DMEM medium containing 10% FBS. 24 h later, the cell medium was removed and cells were incubated for 24 h either in the same medium or in low-glucose (0.5 g/L) DMEM medium containing 1% FBS (fasting mimicking conditions). 24 h later, 10 μM tamoxifen (Tam) was added to the culture medium where indicated. 24 h later, cells were stimulated with doxorubicin or Taxotere at the indicated concentrations. Viability was determined 72 h later in sulforhodamine B assays.
# [2] = literature refs [5], [6]; cited from earlier work
# MCF7 cells [3] = assay: Cell cycle analysis (G1 arrest); type: cell-based; settings: 10 μM tamoxifen, 24 h, FIG. 2A
# Method: (§1) In particular, in the experiments of FIGS. 2A-D, 5×10^5 MCF7, ZR-75-1 or T47D cells were plated in 6-well plates in regular DMEM medium containing 10% FBS. 24 h later, the cell medium was removed and cells were incubated for 24 h either in the same medium (CTR) or in fasting mimicking conditions or a fasting mimicking diet (FMD). 24 h later, 10 μM tamoxifen (Tam) was added to the culture medium where indicated. 24 h later, cells were used for cell cycle analysis or for mRNA extraction and subsequent determination of E2F1, E2F4 and CCNE1 expression by QPCR.
# T47D cells [4] = assay: Cell cycle analysis (G1 arrest); type: cell-based; settings: 10 μM tamoxifen, 24 h, FIG. 2C
# Method: as §1
# MCF7 cells [5] = assay: Cell viability in control vs fasting mimicking (FMD) medium; type: cell-based; settings: FMD = low-glucose (0.5 g/L) DMEM, 1% FBS, vs regular medium, FIG. 1A, 1D
# Method: In particular, in the experiments of FIGS. 1A-D, 3×10^3 MCF7 (A, D), ZR-75-1 (B) or T47D (C) cells were plated in 96 well plates in regular DMEM medium containing 10% FBS. 24 h later, the cell medium was removed and cells were incubated for 24 h either in the same medium (CTR) or in low-glucose (0.5 g/L) DMEM medium containing 1% FBS (FMD). 24 h later, tamoxifen (Tam) or fulvestrant (Fulv) at the indicated concentrations were added to the culture medium.
# MCF7 xenografts = assay: MCF7 xenograft tumor growth
# MCF7 cells [6] = assay: Global gene expression microarrays; type: cell-based
# T47D cells [7] = assay: Gene expression by QPCR; type: cell-based
# T47D cells [8] = test system: T47D cells
# MCF7 cells [9] = type: cell-based; settings: FMD + tamoxifen 5 μM, 24 h
# MCF7 cells [10] = assay: Gene expression by QPCR; type: cell-based
# Method: as §1
# In the experiment of FIG. 4, MCF7, ZR-75-1 or T47D cells were treated as in the experiment of FIG. 2. 24 h after tamoxifen (5 μM) addition, cells were used for protein lysate generation or for mRNA extraction, ER and β-actin were detected by immunoblotting. TTF1 expression was determined by QPCR.
# In the experiment of FIG. 6, MCF7, ZR-75-1 or T47D cells were treated as in the experiment of FIG. 2. 24 h after tamoxifen (5 μM) addition, cells were used for RNA extraction or for protein lysate generation. In FIG. 6A, RAD51 expression was detected by QPCR. In FIG. 6B, RAD51 and (β-actin were detected by immunoblotting.
# [11] = type: in vivo; settings: fasting (water only, 48 h) + tamoxifen 30 mg/kg/die; FIG. 8C
# T47D cells [12] = assay: Cell viability in control vs fasting mimicking (FMD) medium; type: cell-based; settings: FMD = low-glucose (0.5 g/L) DMEM, 1% FBS, vs regular medium, FIG. 1C
# [13] = MCF7 treated with tamoxifen and FMD, 4 biological replicates/condition
# [14] = FMD + tamoxifen 5 μM, 24 h, FIG. 4B
# [15] = FMD + tamoxifen 5 μM, 24 h, FIG. 6A
# [16] = FMD + tamoxifen 10 μM vs single treatments, FIG. 2D
# [17] = FMD + tamoxifen 5 μM, 24 h, FIG. 3
smiles,measurement,setting,value
"CC(=O)O[C@@]12CO[C@@H]1C[C@H](O)[C@@]1(C)C(=O)[C@H](O)C3=C(C)[C@@H](OC(=O)[C@H](O)[C@@H](NC(=O)OC(C)(C)C)c4ccccc4)C[C@@](O)([C@@H](OC(=O)c4ccccc4)[C@H]21)C3(C)C [Taxotere, docetaxel]","cell viability, triple treatment tamoxifen + Taxotere + FMD",MCF7 cells [1]; taxotere 100 nM,most pronounced reduction in cell viability
COc1cccc2c1C(=O)c1c(O)c3c(c(O)c1C2=O)C[C@@](O)(C(=O)CO)C[C@@H]3O[C@H]1C[C@H](N)[C@H](O)[C@H](C)O1 [doxorubicin],"cell viability, triple treatment tamoxifen + doxorubicin + FMD",MCF7 cells [1]; doxorubicin 100 nM,most pronounced reduction in cell viability
CO[C@H]1C[C@@H]2CC[C@@H](C)[C@@](O)(O2)C(=O)C(=O)N2CCCC[C@H]2C(=O)O[C@H]([C@H](C)C[C@@H]2CC[C@@H](OCCO)[C@H](OC)C2)CC(=O)[C@H](C)/C=C(\C)[C@@H](O)[C@@H](OC)C(=O)[C@H](C)C[C@H](C)/C=C/C=C/C=C/1C [everolimus],significant side effects,[2],"stomatitis, anemia and hyperglycemia"
C[C@]12CC[C@@H]3c4ccc(O)cc4C[C@@H](CCCCCCCCC[S+]([O-])CCCC(F)(F)C(F)(F)F)[C@H]3[C@@H]1CC[C@@H]2O (some centres unmarked) [fulvestrant],"induction of a G1 cell cycle arrest, drug + FMD",MCF7 cells [3],increased the ability
same,"induction of a G1 cell cycle arrest, drug + FMD",T47D cells [4],increased the ability
same,cell viability: potentiation of drug activity by FMD conditions,MCF7 cells [5],marked increase
CC/C(=C(\c1ccccc1)c1ccc(OCCN(C)C)cc1)c1ccccc1 [tamoxifen],"induction of a G1 cell cycle arrest, drug + FMD",MCF7 cells [3],increased the ability
same,"induction of a G1 cell cycle arrest, drug + FMD",T47D cells [4],increased the ability; also recorded: only occurred in response to a combined treatment
same,"growth of MCF7 xenografts (tumor volume), drug alone","MCF7 xenografts; normal diet, tamoxifen 30 mg/kg/die oral gavage, FIG. 8A",reduced the growth
same,"growth of MCF7 xenografts (tumor volume), drug + fasting","MCF7 xenografts; tamoxifen 30 mg/kg/die oral gavage + fasting (water only, 48 h, once a week), p<0.05",significantly more effective than either type of treatment alone
same,cell viability: potentiation of drug activity by FMD conditions,MCF7 cells [5],strong potentiation
same,gene ontology/pathway analysis of differentially expressed genes,"MCF7 cells [6]; MCF7, FMD added to tamoxifen vs FMD alone or tamoxifen alone, FIG. 5",marked changes in pathways related to DNA repair
same,BRCA1 Log2 fold change,MCF7 cells [6]; [13],−1.372
same,EXO1 Log2 fold change,MCF7 cells [6]; [13],−1.583
same,PCNA Log2 fold change,MCF7 cells [6]; [13],−1.658
same,RAD51 Log2 fold change,MCF7 cells [6]; [13],−1.864
same,TIPIN Log2 fold change,MCF7 cells [6]; [13],−1.604
same,TTF1 expression (ERα-mediated transcription),T47D cells [7]; [14],increase the ability of tamoxifen to reduce TTF1 expression
same,RAD51 expression at the mRNA level,T47D cells [7]; [15],strong RAD51 downregulation
same,"downregulation of cell cycle promoting genes (E2F1, E2F2 and CCNE1)",T47D cells [7]; [16],more pronounced; also recorded: only occurred in response to a combined treatment
same,4E-BP1 phosphorylation state,T47D cells [8]; [17],marked accumulation of the unphosphorylated form
same,mTOR activity (levels of phosphorylated p70S6K and eIF4E),T47D cells [8]; [17],marked inhibition of mTOR activity
same,RAD51 expression at the protein level,"T47D cells [8]; FMD + tamoxifen 5 μM, 24 h, FIG. 6B",strong RAD51 downregulation
same,HER2 expression,"T47D cells [8]; FMD in combination with tamoxifen 5 μM, FIG. 3",marked reduction in HER2 expression
same,4E-BP1 phosphorylation state,MCF7 cells [9]; FIG. 3,marked accumulation of the unphosphorylated form
same,mTOR activity (levels of phosphorylated p70S6K and eIF4E),MCF7 cells [9]; FIG. 3,marked inhibition of mTOR activity
same,RAD51 expression at the protein level,MCF7 cells [9]; FIG. 6B,strong RAD51 downregulation
same,TTF1 expression (ERα-mediated transcription),MCF7 cells [10]; [14],increase the ability of tamoxifen to reduce TTF1 expression
same,RAD51 expression at the mRNA level,MCF7 cells [10]; [15],strong RAD51 downregulation
same,"downregulation of cell cycle promoting genes (E2F1, E2F2 and CCNE1)",MCF7 cells [10]; [16],more pronounced
same,"mouse body weight loss, addition of drug to fasting",[11],failed to worsen weight losses
same,cell viability: potentiation of drug activity by FMD conditions,T47D cells [12],strong potentiation
